Drawing on patent publication US12258328B2, “6-membered heteroaryl-containing aminopyridine compounds as EGFR inhibitors” (YUHAN CORPORATION, priority 2021, dated 2025), this text covers IC50 for eleven compounds.

Assay [1] has as its target EGFR wildtype (Homo sapiens, UniProt P00533). Description: Biochemical EGFR kinase assay (Lance Ultra TR-FRET), wildtype. How it is done:
(§1) Biochemical EGFR kinase assays were conducted using Lance Ultra time-resolved fluorescence resonance energy transfer (TR-FRET) technology from Perkin-Elmer. Compounds of the invention were initially diluted to 20 mM in 100% DMSO for storage and made into kinase buffer solution to create a compound concentration ranging from 0.003 μM and 10 μM.
(§2) Each kinase reactions were incubated at room temperature for 1 hour and then stopped by the addition of 4 μL of stop solution (10 mM EDTA). The specific Europium-labeled-anti-phosphopeptide antibody (PerkinElmer, AD0069) diluted in LANCE detection buffer was then added to a final concentration of 2 nM. After 60 minutes incubation at room temperature the LANCE signal was measured on an EnVision Multilabel Reader (Perkin-Elmer). Excitation wavelength was set at 320 nm and emission monitored at 615 nm (donor) and 665 nm (acceptor). The IC50 values were determined using GraphPad prism software (GraphPad Software, Inc., San Diego, CA, USA).
(In TR-FRET formats the signal depends on donor and acceptor labels being close together.)

Assay [2] has as its target EGFR L858R/T790M/C797S (Homo sapiens, UniProt P00533, C797S/L858R/T790M). Description: Biochemical EGFR kinase assay (Lance Ultra TR-FRET), triple mutant L858R/T790M/C797S. The procedure:
as §1, §2

In assay [3] the target is EGFR del19/T790M/C797S (Homo sapiens, UniProt P00533, C797S/DEL746-750/T790M). Put plainly: Biochemical EGFR kinase assay (Lance Ultra TR-FRET), triple mutant del19/T790M/C797S. How it is done: as §1, §2
Sequence of EGFR del19/T790M/C797S (P00533 with tags, fused parts or gaps DEL746-750/T790M/C797S): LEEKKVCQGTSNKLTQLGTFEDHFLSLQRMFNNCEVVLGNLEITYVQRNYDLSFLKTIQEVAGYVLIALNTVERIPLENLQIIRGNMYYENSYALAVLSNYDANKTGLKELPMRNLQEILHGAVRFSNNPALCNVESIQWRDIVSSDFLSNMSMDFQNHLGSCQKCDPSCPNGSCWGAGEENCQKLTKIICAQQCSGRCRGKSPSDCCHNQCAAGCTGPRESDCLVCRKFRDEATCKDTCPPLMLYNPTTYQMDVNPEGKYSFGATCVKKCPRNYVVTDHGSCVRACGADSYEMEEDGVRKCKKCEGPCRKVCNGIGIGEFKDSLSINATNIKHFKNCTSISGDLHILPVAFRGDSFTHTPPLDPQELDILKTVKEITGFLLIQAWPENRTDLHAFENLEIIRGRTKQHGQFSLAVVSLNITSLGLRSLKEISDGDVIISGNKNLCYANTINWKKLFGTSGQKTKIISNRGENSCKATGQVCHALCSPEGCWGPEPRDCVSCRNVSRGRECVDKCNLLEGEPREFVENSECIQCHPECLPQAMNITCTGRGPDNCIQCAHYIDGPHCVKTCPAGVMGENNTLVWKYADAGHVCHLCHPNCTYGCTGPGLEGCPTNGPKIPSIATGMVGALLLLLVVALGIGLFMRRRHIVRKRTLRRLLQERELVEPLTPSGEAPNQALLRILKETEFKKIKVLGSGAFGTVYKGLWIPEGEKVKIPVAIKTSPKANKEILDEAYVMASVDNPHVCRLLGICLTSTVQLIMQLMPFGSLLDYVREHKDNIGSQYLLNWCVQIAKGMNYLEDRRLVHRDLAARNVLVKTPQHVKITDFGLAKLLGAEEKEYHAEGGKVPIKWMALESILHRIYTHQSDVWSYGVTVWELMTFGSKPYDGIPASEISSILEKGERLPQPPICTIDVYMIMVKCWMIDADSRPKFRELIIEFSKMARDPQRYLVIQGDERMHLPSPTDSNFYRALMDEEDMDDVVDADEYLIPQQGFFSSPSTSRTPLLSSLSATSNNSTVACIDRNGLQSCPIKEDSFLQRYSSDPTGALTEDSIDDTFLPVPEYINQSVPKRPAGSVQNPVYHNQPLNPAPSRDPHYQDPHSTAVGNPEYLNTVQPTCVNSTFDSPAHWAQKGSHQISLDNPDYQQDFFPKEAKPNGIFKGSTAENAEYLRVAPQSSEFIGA
Assay [4] concerns the target EGFR L858R/C797S (Homo sapiens, UniProt P00533, C797S/L858R). Description: Biochemical EGFR kinase assay (Lance Ultra TR-FRET), double mutant L858R/C797S. The procedure:
as §1, §2

In assay [5] the target is EGFR del19/C797S (Homo sapiens, UniProt P00533, C797S/DEL746-750). Put plainly: Biochemical EGFR kinase assay (Lance Ultra TR-FRET), double mutant del19/C797S. How it is done:
as §1, §2

Setting [6] is: IC50 L858R/T790M/C797S, 100 μM ATP.
Where [7] appears, read: ATP at Km, read-out: IC50 del19/T790M/C797S, Km ATP.
[8] abbreviates: IC50 del19/T790M/C797S, 100 μM ATP.
Where [9] appears, read: ATP at Km, read-out: IC50 L858R/C797S, Km ATP.
Setting [10] is: ATP at Km, read-out: IC50 del19/C797S, Km ATP.
Setting [11] is: IC50 WT (nM) 100 μM ATP, 100 μM ATP.
[12] abbreviates: Km ATP, read-out: IC50 WT (nM) Km ATP.
[13] abbreviates: IC50 L858R/T790M/C797S (nM) 100 μM ATP, 100 μM ATP.
Where [14] appears, read: Km ATP, read-out: IC50 L858R/T790M/C797S (nM) Km ATP.
[15] abbreviates: IC50 del19/T790M/C797S (nM) 100 μM ATP, 100 μM ATP.
Setting [16] is: Km ATP, read-out: IC50 del19/T790M/C797S (nM) Km ATP.
[17] abbreviates: IC50 L858R/C797S (nM) 100 μM ATP, 100 μM ATP.
The mark [18] stands for this setting: Km ATP, read-out: IC50 L858R/C797S (nM) Km ATP.
The mark [19] stands for this setting: IC50 del19/C797S (nM) 100 μM ATP, 100 μM ATP.
[20] abbreviates: ATP at Km, read-out: IC50 WT, Km ATP.
Where [21] appears, read: ATP at Km, read-out: IC50 L858R/T790M/C797S, Km ATP.
[22] abbreviates: Km ATP, read-out: IC50 del19/C797S (nM) Km ATP.

The structures appear in SMILES notation. Like-named read-outs stand apart in the source and are kept apart here.

Sequence of EGFR wildtype (P00533 25-1210): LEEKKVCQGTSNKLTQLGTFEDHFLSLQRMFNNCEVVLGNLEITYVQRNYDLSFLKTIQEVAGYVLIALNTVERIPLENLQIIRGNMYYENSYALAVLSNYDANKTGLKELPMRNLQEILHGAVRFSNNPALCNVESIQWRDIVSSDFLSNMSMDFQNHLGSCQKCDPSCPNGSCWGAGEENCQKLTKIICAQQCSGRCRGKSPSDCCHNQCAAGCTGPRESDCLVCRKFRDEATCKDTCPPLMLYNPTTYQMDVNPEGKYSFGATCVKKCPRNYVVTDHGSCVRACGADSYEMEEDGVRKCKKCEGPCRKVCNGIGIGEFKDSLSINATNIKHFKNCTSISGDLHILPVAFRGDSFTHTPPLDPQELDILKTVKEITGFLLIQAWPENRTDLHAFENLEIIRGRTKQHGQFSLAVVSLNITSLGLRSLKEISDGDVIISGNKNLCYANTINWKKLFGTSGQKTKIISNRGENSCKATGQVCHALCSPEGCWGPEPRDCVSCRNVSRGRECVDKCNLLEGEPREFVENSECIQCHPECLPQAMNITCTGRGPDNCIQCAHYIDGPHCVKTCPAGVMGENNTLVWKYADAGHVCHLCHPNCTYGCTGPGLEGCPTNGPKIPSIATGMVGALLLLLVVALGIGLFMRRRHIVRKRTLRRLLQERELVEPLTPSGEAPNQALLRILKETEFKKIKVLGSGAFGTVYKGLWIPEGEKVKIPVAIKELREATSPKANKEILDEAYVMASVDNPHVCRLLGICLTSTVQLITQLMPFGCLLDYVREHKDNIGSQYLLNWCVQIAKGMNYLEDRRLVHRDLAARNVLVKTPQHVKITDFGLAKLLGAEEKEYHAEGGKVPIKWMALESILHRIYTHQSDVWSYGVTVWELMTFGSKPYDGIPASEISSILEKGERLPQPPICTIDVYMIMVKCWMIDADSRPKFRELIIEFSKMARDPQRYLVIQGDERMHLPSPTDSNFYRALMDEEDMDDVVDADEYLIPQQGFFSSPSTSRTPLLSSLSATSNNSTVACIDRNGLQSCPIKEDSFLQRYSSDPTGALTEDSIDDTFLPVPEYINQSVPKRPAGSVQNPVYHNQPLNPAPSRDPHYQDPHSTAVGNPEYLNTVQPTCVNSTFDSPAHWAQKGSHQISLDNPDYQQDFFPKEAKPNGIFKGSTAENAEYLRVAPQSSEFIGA
Sequence of EGFR L858R/T790M/C797S (P00533 25-1210 T790M/C797S/L858R): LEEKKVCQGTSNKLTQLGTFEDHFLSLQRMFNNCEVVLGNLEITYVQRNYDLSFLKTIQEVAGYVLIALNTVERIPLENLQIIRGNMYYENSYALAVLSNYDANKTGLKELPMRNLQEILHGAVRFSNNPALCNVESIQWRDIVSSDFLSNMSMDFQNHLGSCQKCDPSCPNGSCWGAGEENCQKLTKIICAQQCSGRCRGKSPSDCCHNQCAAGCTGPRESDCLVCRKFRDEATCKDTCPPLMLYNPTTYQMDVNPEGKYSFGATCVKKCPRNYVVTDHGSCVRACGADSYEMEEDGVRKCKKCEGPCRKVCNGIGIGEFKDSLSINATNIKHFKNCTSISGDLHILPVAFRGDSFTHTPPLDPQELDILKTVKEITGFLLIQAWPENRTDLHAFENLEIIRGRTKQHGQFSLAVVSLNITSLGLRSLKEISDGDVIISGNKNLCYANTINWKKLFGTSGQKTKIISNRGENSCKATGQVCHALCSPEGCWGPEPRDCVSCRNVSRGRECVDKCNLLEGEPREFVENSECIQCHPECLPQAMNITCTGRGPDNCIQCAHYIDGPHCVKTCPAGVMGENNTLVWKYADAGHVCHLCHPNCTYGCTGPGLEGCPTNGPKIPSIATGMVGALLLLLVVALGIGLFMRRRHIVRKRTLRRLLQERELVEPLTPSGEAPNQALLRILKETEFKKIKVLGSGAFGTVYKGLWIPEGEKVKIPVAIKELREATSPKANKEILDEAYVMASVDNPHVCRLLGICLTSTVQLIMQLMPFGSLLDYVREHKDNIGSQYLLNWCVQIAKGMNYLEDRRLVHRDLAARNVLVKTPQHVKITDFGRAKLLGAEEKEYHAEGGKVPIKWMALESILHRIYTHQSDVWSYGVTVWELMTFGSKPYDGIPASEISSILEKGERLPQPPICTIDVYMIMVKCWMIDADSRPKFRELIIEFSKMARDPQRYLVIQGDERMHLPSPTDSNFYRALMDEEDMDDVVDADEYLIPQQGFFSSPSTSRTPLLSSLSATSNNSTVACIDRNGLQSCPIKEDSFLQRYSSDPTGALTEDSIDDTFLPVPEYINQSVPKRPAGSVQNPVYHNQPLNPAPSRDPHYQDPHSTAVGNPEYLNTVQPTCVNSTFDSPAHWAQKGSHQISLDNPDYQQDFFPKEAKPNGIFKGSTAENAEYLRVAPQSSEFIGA
Sequence of EGFR del19/C797S (P00533 with tags, fused parts or gaps DEL746-750/C797S): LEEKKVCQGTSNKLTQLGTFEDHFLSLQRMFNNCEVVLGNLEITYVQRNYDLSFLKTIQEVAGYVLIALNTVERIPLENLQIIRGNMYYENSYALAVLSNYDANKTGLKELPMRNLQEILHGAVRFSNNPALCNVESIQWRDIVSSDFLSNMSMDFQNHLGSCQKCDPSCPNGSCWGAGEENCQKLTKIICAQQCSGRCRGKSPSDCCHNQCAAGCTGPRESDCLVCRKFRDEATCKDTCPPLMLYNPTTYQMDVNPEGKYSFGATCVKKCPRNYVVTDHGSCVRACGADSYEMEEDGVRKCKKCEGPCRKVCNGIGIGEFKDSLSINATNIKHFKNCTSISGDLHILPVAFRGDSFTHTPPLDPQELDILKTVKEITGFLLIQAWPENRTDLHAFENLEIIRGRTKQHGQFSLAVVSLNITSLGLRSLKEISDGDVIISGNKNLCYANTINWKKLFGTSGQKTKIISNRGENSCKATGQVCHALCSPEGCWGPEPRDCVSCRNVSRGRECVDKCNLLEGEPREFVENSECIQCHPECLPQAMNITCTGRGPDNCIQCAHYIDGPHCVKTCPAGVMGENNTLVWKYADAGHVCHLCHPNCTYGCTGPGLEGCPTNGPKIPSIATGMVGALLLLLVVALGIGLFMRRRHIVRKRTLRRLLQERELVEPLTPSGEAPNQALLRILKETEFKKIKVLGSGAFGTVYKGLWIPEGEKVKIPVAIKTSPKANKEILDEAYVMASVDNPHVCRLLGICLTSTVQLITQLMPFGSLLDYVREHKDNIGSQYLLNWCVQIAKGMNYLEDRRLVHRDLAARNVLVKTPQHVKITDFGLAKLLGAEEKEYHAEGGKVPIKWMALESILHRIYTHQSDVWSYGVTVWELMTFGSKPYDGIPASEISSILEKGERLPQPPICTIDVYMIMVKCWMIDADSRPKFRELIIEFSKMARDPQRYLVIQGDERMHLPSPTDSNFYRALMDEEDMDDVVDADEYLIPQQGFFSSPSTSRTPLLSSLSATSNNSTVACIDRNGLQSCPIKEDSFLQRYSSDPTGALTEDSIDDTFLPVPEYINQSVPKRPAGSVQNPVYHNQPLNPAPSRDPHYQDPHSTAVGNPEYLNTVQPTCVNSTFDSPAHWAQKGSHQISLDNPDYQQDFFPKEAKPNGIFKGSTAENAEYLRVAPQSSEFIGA

As for `CC(C)(O)c1ccc(-c2cnc(Nc3ccnc(-c4cnn(S(=O)(=O)C5CC5)c4)n3)cc2N[C@H]2CC[C@@H](C(C)(C)O)CC2)nc1` [Example 169, 2-(6′-((2-(1-(Cyclopropylsulfonyl)-1H-pyrazol-4-yl)pyrimidin-4-yl)amino)-4′-(((1s,4s)-4-(2-hydroxypropan-2-yl)cyclohexyl)amino)-[2,3′-bipyridin]-5-yl)propan-2-ol], the IC50 in assay [1] (IC50 WT, 100 μM ATP) came out at 416 nM; in assay [2] (setting [6]) it was 0.7 nM; in assay [3] (setting [7]) it was 1.3 nM; in assay [3] (setting [8]) it was 0.9 nM; in assay [4] (setting [9]) it was 0.4 nM; in assay [5] (setting [10]), 0.5 nM. The IC50 in assay [5] (IC50 del19/C797S, 100 μM ATP) was 1.3 nM.

As to `C[C@]1(O)CC[C@@H](Nc2cc(Nc3ccnc(-c4cnn(S(=O)(=O)C5CC5)c4)n3)ncc2-c2cc(N3CCOCC3)ccn2)CC1` [Example 48, (1s,4s)-4-((6′-((2-(1-(Cyclopropylsulfonyl)-1H-pyrazol-4-yl)pyrimidin-4-yl)amino)-4-morpholino-[2,3′-bipyridin]-4′-yl)amino)-1-methylcyclohexan-1-ol], the IC50 in assay [1] (setting [11]) is greater than 10000 nM; in assay [1] (setting [12]) it was 24.7 nM; in assay [2] (setting [13]) it was 2.1 nM; in assay [2] (setting [14]) it was 0.3 nM; in assay [3] (setting [15]), 0.6 nM; in assay [3] (setting [16]), 0.5 nM. Besides, the IC50 amounted to 83.3 nM in assay [4] (setting [17]), 14.1 nM in assay [4] (setting [18]) and 5.8 nM in assay [5] (setting [19]).

For `CC(C)(F)c1ccc(-c2cnc(Nc3ccnc(-c4cnn(S(=O)(=O)C5CC5)c4)n3)cc2N[C@H]2CC[C@@H](F)CC2)nc1` [Example 238, N^6′-(2-(1-(Cyclopropylsulfonyl)-1H-pyrazol-4-yl)pyrimidin-4-yl)-N^4′-((1s,4s)-4-fluorocyclohexyl)-5-(2-fluoropropan-2-yl)-[2,3′-bipyridine]-4′,6′-diamine], the IC50 in assay [1] (setting [20]) came to 317 nM; in assay [2] (setting [21]) it was 9.2 nM; in assay [3] (setting [7]), 28.4 nM; in assay [4] (setting [9]), 18.7 nM; in assay [5] (setting [10]) it was 95.1 nM.

As for `CN(C)S(=O)(=O)n1cc(-c2nccc(Nc3cc(N[C@H]4CC[C@@](C)(O)CC4)c(-c4ccc(CC(F)(F)F)cn4)cn3)n2)cn1` [Example 296, 4-(4-((4′-(((1s,4s)-4-Hydroxy-4-methylcyclohexyl)amino)-5-(2,2,2-trifluoroethyl)-[2,3′-bipyridin]-6′-yl)amino)pyrimidin-2-yl)-N,N-dimethyl-1H-pyrazole-1-sulfonamide], the IC50 in assay [1] (setting [20]) came out at 89.8 nM; in assay [2] (setting [21]), 3.7 nM; in assay [3] (setting [7]), 4.5 nM; in assay [4] (setting [9]) it was 10.1 nM; in assay [5] (setting [10]) it was 17.6 nM.

In the case of `C[C@]1(O)CC[C@@H](Nc2cc(Nc3ccnc(-c4cnn(S(=O)(=O)C5CC5)c4)n3)ncc2-c2ccc(N3CCOCC3)nn2)CC1` [Example 43, (1s,4s)-4-((2-((2-(1-(Cyclopropylsulfonyl)-1H-pyrazol-4-yl)pyrimidin-4-yl)amino)-5-(6-morpholinopyridazin-3-yl)pyridin-4-yl)amino)-1-methylcyclohexan-1-ol], the IC50 was found to be 1560 nM in assay [1] (setting [11]); 2 nM in assay [1] (setting [12]); 2.7 nM in assay [2] (setting [13]); 0.1 nM in assay [2] (setting [14]); 2.5 nM in assay [3] (setting [15]); 0.1 nM in assay [3] (setting [16]). The IC50 in assay [4] (setting [17]) was 1.6 nM; in assay [4] (setting [18]), 0.6 nM; in assay [5] (setting [19]), 0.5 nM; in assay [5] (setting [22]), 0.4 nM.

`CC1(O)CCC(Nc2cc(Nc3ccnc(-c4cnn(S(=O)(=O)C5CC5)c4)n3)ncc2-c2cc(S(C)(=O)=O)ccn2)CC1` (stereo not drawn) [Example 198, (1s,4s)-4-((6′-((2-(1-(Cyclopropylsulfonyl)-1H-pyrazol-4-yl)pyrimidin-4-yl)amino)-4-(methylsulfonyl)-[2,3′-bipyridin]-4′-yl)amino)-1-methylcyclohexan-1-ol]: the IC50 in assay [1] (setting [20]) is 3.7 nM; in assay [1] (IC50 WT, 100 μM ATP), greater than 10000 nM; in assay [2] (setting [21]), 0.2 nM; in assay [2] (setting [6]), 0.4 nM; in assay [3] (setting [7]), 0.5 nM; in assay [3] (setting [8]), 0.8 nM. The IC50 in assay [4] (setting [9]) amounted to 0.8 nM; in assay [4] (IC50 L858R/C797S, 100 μM ATP), 2.9 nM; in assay [5] (setting [10]), 0.7 nM; in assay [5] (IC50 del19/C797S, 100 μM ATP), 2.9 nM.

For `CN1CCN(Cc2ccnc(-c3cnc(Nc4ccnc(-c5cnn(S(=O)(=O)C6CC6)c5)n4)cc3N[C@H]3CC[C@@](C)(O)CC3)c2)CC1` [Example 55, (1s,4s)-4-((6′-((2-(1-(Cyclopropylsulfonyl)-1H-pyrazol-4-yl)pyrimidin-4-yl)amino)-4-((4-methylpiperazin-1-yl)methyl)-[2,3′-bipyridin]-4′-yl)amino)-1-methylcyclohexan-1-ol], the IC50 worked out at 754 nM in assay [1] (setting [11]); 1.9 nM in assay [1] (setting [12]); 0.4 nM in assay [2] (setting [13]); 1.7 nM in assay [3] (setting [15]); 0.7 nM in assay [3] (setting [16]); 1 nM in assay [4] (setting [17]). The values for the IC50 in assay [4] (setting [18]), in assay [5] (setting [19]) and in assay [5] (setting [22]) were 0.3 nM, 1.1 nM and 0.5 nM, respectively.

Regarding `CC(C)(O)[C@H]1CC[C@@H](Nc2cc(Nc3ccnc(-c4cnn(S(=O)(=O)C5CC5)c4)n3)ncc2-c2ccc(CC(F)(F)F)cn2)CC1` [Example 220, 2-((1s,4s)-4-((6′-((2-(1-(Cyclopropylsulfonyl)-1H-pyrazol-4-yl)pyrimidin-4-yl)amino)-5-(2,2,2-trifluoroethyl)-[2,3′-bipyridin]-4′-yl)amino)cyclohexyl)propan-2-ol], the IC50 in assay [1] (setting [20]) is 115 nM; in assay [1] (IC50 WT, 100 μM ATP) it was greater than 10000 nM; in assay [2] (setting [21]) it was 5.4 nM; in assay [2] (setting [6]) it was 9.3 nM; in assay [3] (setting [7]) it was 8.5 nM; in assay [3] (setting [8]) it was 2.3 nM. The IC50 in assay [4] (setting [9]) is 25.9 nM; in assay [4] (IC50 L858R/C797S, 100 μM ATP), 289 nM; in assay [5] (setting [10]) it was 27.8 nM; in assay [5] (IC50 del19/C797S, 100 μM ATP), 30.5 nM.

In the case of `C[C@]1(O)CC[C@@H](Nc2cc(Nc3ccnc(-c4cnn(S(=O)(=O)C5CC5)c4)n3)ncc2-c2ccc(N3CC4(COC4)C3)nn2)CC1` [Example 67, (1s,4s)-4-((5-(6-(2-Oxa-6-azaspiro[3.3]heptan-6-yl)pyridazin-3-yl)-2-((2-(1-(cyclopropylsulfonyl)-1H-pyrazol-4-yl)pyrimidin-4-yl)amino)pyridin-4-yl)amino)-1-methylcyclohexan-1-ol], the IC50 in assay [1] (setting [11]) was greater than 10000 nM; in assay [1] (setting [12]), 3.7 nM; in assay [2] (setting [13]), 0.3 nM; in assay [2] (setting [14]), 0.1 nM; in assay [3] (setting [15]), 0.3 nM; in assay [3] (setting [16]) it was 0.3 nM. The IC50 in assay [4] (setting [17]) came out at 4.5 nM; in assay [4] (setting [18]), 0.8 nM; in assay [5] (setting [19]), 0.5 nM; in assay [5] (setting [22]) it was 0.5 nM.

Consider `Cc1ccc(-c2cnc(Nc3ccnc(-c4cnn(S(=O)(=O)C5CC5)c4)n3)cc2N[C@H]2CC[C@@](C)(O)CC2)nc1F` [Example 179, (1s,4s)-4-((6′-((2-(1-(Cyclopropylsulfonyl)-1H-pyrazol-4-yl)pyrimidin-4-yl)amino)-6-fluoro-5-methyl-[2,3′-bipyridin]-4′-yl)amino)-1-methylcyclohexan-1-ol], for which the IC50 in assay [1] (setting [20]) is 4.1 nM; in assay [1] (IC50 WT, 100 μM ATP), greater than 10000 nM; in assay [2] (setting [21]), 0.4 nM; in assay [3] (setting [7]) it was 0.9 nM; in assay [4] (IC50 L858R/C797S, 100 μM ATP), 3.6 nM; in assay [5] (setting [10]), 0.6 nM. In assay [5] (IC50 del19/C797S, 100 μM ATP), this compound yielded an IC50 of 2.8 nM.

In the case of `CC(C)(O)c1ccc(-c2cnc(Nc3ccnc(-c4cnn(S(=O)(=O)C5CC5)c4)n3)cc2NC2CCC(F)(F)CC2)nc1` [Example 175, 2-(6′-((2-(1-(Cyclopropylsulfonyl)-1H-pyrazol-4-yl)pyrimidin-4-yl)amino)-4′-((4,4-difluorocyclohexyl)amino)-[2,3′-bipyridin]-5-yl)propan-2-ol], the IC50 came to 90.3 nM in assay [1] (setting [20]); 1.1 nM in assay [2] (setting [21]); 2.4 nM in assay [3] (setting [7]); 3.9 nM in assay [4] (setting [9]); 20.4 nM in assay [5] (setting [10]).
